How the values were obtained:
Assay in all cases: relative viability (nuclei count vs DMSO), 5 days (fraction); higher = more cells survive
[1] = compound: C1COCCN1C2=CC(=O)C3=C(O2)C(=CC=C3)C4=CC=CC5=C4SC6=CC=CC=C56
In short: (§1)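 Viability here means nuclei in treated wells divided by nuclei in vehicle wells, reported as the median across plates. Only plates with control CV below 25% and at least one doubling passed. Lung cancer cell lines in 1536-well plates were exposed to five √10-spaced library-drug doses for 5 days and counted from 4× Hoechst images in MetaXpress.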

[2] = compound: CCN(CC)CCCCNc1ncc2cc(-c3cc(OC)cc(OC)c3)c(NC(=O)NC(C)(C)C)nc2n1
In short: as §1

[3] = compound: O=c1cc(-c2cccc3c2Sc2ccccc2S3)oc(N2CCOCC2)c1
In short: as §1

[4] = compound: COc1nc(C)cnc1NS(=O)(=O)c1cccnc1-c1ccc(-c2nnco2)cc1 [Zibotentan]
In short: as §1

[5] = compound: COCC1(CO)C(=O)C2CCN1CC2 [PRIMA-1MET]
In short: as §1

Row | Cell Line | relative viability ([1]; 0.01 µM) | relative viability ([1]; 0.03162 µM) | relative viability ([1]; 0.1 µM) | relative viability ([1]; 0.3162 µM) | relative viability ([1]; 1 µM) | relative viability ([2]; 0.01 µM) | relative viability ([2]; 0.03162 µM) | relative viability ([2]; 0.1 µM) | relative viability ([2]; 0.3162 µM) | relative viability ([2]; 1 µM) | relative viability ([3]; 0.08 µM) | relative viability ([3]; 0.253 µM) | relative viability ([3]; 0.8 µM) | relative viability ([3]; 2.53 µM) | relative viability ([3]; 8 µM) | relative viability ([4]; 0.08 µM) | relative viability ([4]; 0.253 µM) | relative viability ([4]; 0.8 µM) | relative viability ([4]; 2.53 µM) | relative viability ([5]; 0.2 µM) | relative viability ([5]; 0.6325 µM) | relative viability ([5]; 2 µM) | relative viability ([5]; 6.325 µM) | relative viability ([5]; 20 µM)
1 | A-427 | 0.967 | 1.05 | 0.923 | 0.979 | 1 | 1.01 | 0.896 | 1.07 | 1.12 | 0.844 | 0.958 | 1.03 | 1.09 | 0.814 | 1.06 | 1.08 | 0.972 | 0.942 | 1.01 | 1.01 | 0.836 | 0.831 | 1.02 | 0.855
2 | HOP-62 | 1.08 | 1 | 0.997 | 0.954 | 0.981 | 1.06 | 1.09 | 1.21 | 1.06 | 1.05 | 1.03 | 1.11 | 1.13 | 0.886 | 1.14 | 1.03 | 1.03 | 1.16 | 1.01 | 1.06 | 0.989 | 0.915 | 1.14 | 0.744
3 | A549 | 1.01 | 0.96 | 1.01 | 0.973 | 0.914 | 0.927 | 0.97 | 1.15 | 1.06 | 0.876 | 0.946 | 1.22 | 1.1 | 0.991 | 1.07 | 1.04 | 0.938 | 0.931 | 1 | 1.1 | 0.893 | 0.944 | 1.01 | 0.891
4 | NCI-H1993 | 0.882 | 0.931 | 1.1 | 0.995 | 0.84 | 0.976 | 0.924 | 1.05 | 1.45 | 0.901 | 0.84 | 1.05 | 0.846 | 0.824 | 0.826 | 0.966 | 0.871 | 0.913 | 1.04 | 1 | 0.767 | 0.824 | 0.92 | 0.955
5 | NCI-H2023 | 1.05 | 1.1 | 1.04 | 0.973 | 0.908 | 0.914 | 1.09 | 1.16 | 1.05 | 0.854 | 0.923 | 1.12 | 0.972 | 0.865 | 0.888 | 1.06 | 0.794 | 0.899 | 1 | 1.3 | 0.888 | 0.955 | 0.97 | 0.826
6 | LXF-289 | 1.05 | 1.01 | 1.03 | 1.01 | 1.07 | 1.01 | 1.02 | 1.06 | 1.02 | 0.844 | 1.01 | 1.03 | 1.02 | 0.99 | 1.02 | 1.02 | 1.01 | 1.02 | 1.01 | 1.08 | 0.983 | 1.16 | 1.04 | 0.942
7 | NCI-H596 | 0.999 | 0.984 | 0.916 | 1.02 | 0.939 | 0.973 | 1.06 | 0.992 | 0.915 | 0.858 | 0.947 | 1.08 | 1.04 | 0.916 | 0.979 | 0.842 | 1.01 | 1.07 | 1.12 | 0.981 | 0.875 | 0.857 | 1.14 | 0.224
8 | SW 1573 | 0.981 | 0.998 | 0.985 | 0.952 | 0.938 | 0.932 | 1.01 | 1.09 | 1.02 | 0.906 | 0.965 | 1.1 | 1 | 0.949 | 1.1 | 1.03 | 0.707 | 1.08 | 1.09 | 1.11 | 0.787 | 0.87 | 0.246 | 0.0301
9 | NCI-H1944 | 1 | 1.01 | 1.02 | 0.997 | 0.949 | 0.945 | 0.875 | 1.06 | 0.985 | 0.894 | 0.938 | 1.09 | 0.905 | 0.752 | 1.09 | 1.07 | 0.94 | 0.874 | 1.01 | 1.06 | 0.782 | 0.695 | 0.927 | 0.924
10 | NCI-H1734 | 0.977 | 1.01 | 0.883 | 0.997 | 0.964 | 0.949 | 1.1 | 1.09 | 1.03 | 0.85 | 0.98 | 1.13 | 1.1 |  | 1.13 | 1.04 | 0.884 | 1.02 | 1 | 1.03 | 0.75 | 0.734 | 0.945 | 0.0584
11 | NCI-H1563 | 0.972 | 1.01 | 0.944 | 0.975 | 0.977 | 1.03 | 0.95 | 1.04 | 0.928 | 0.729 | 0.973 | 0.988 | 0.933 | 0.989 | 0.986 | 1.04 | 0.716 | 1 | 1.09 | 1.05 | 0.968 | 0.806 | 1.06 | 0.457
12 | NCI-H2405 | 1.03 | 0.906 | 1.03 | 1.1 | 0.958 | 0.988 | 1.03 | 1.13 | 1.08 | 0.982 | 0.958 | 0.998 | 0.979 | 0.878 | 1.14 | 1.06 | 0.942 | 1.03 | 1.09 | 0.881 | 0.972 |  | 0.952 | 0.509
13 | NCI-H1793 | 0.888 | 0.786 | 0.918 | 0.896 | 0.806 | 0.903 | 0.933 | 1.03 | 0.944 | 0.683 | 0.819 | 1.3 | 0.857 | 0.771 | 0.805 | 0.938 | 0.862 | 0.801 | 1.03 | 0.936 | 0.815 |  | 1.08 | 0.923
14 | NCI-H322M | 0.895 | 1.01 |  | 0.97 | 0.77 | 0.926 | 0.923 | 1.05 | 1.07 | 0.871 | 0.841 | 0.969 | 0.848 | 0.879 | 0.875 | 1.03 | 0.818 | 0.906 | 0.983 | 1.13 | 0.831 |  | 1.11 | 0.838

— the supplement of paper PMC10307832
